ChEMBL document CHEMBL3639096, “Bivalent inhibitors of IAP proteins and therapeutic methods using the same” (2014)

Assays:
[1] = target: Baculoviral IAP repeat-containing protein 3 (Homo sapiens, UniProt Q13489); assay: (§1) For cIAP-1 BIR3 and cIAP-2 BIR3 assays, a fluorescently labeled Smac mimetic (Smac-2F) was used as the fluorescent probe. The Kd values of Smac-2F to cIAP-1 BIR3 and cIAP-2 BIR3 were determined by monitoring the total fluorescence polarization of mixtures composed with the fluorescent probe at a fixed concentration and proteins with increasing concentrations up to full saturation. Fluorescence polarization values were measured using the Infinite M-1000 plate reader (Tecan U.S., Research Triangle Park, N.C.) in Microfluor 2 96-well, black, round-bottom plates (Thermo Scientific). To each well, 1 nM of SMAC-2F and increasing concentrations of protein were added to a final volume of 125 ul in the assay buffer (100 mM potassium phosphate, pH 7.5).
[2] = target: E3 ubiquitin-protein ligase XIAP (Homo sapiens, UniProt P98170); assay: as §1
[3] = target: Baculoviral IAP repeat-containing protein 2 (Homo sapiens, UniProt Q13490); assay: as §1

## CN[C@@H](C)C(=O)N[C@H]1CN(C(=O)Nc2ccc(CCc3ccc(NC(=O)N4CC[C@H]5CC[C@@H](C(=O)NC(c6ccccc6)c6ccccc6)N5C(=O)[C@@H](NC(=O)[C@H](C)NC)C4)cc3)cc2)CC[C@H]2CCC(C(=O)NC(c3ccccc3)c3ccccc3)N2C1=O (some centres not stated)
[1]
  IC50: < 0.3 µM
[2]
  IC50: < 30 nM
[3]
  IC50: < 300 nM

## CN[C@@H](C)C(=O)N[C@H]1CN(C(=O)Nc2ccc(NC(=O)N3CC[C@H]4CC[C@@H](C(=O)N[C@H]5C[C@@H]5c5ccccc5F)N4C(=O)[C@@H](NC(=O)[C@H](C)NC)C3)cc2)CC[C@H]2CC[C@@H](C(=O)N[C@H]3C[C@@H]3c3ccccc3F)N2C1=O
[1]
  IC50: < 1 µM
[2]
  IC50: < 1000 nM
[3]
  IC50: < 1000 nM

## CN[C@@H](C)C(=O)N[C@H]1CN(C(=O)Nc2ccc(NC(=O)N3CC[C@H]4CC[C@@H](C(=O)N[C@H]5CCC[C@H]5c5ccccc5)N4C(=O)[C@@H](NC(=O)[C@H](C)NC)C3)cc2)CC[C@H]2CC[C@@H](C(=O)N[C@H]3CCC[C@H]3c3ccccc3)N2C1=O
[1]
  IC50: < 1 µM
[2]
  IC50: < 1000 nM
[3]
  IC50: < 1000 nM

## CN[C@@H](C)C(=O)N[C@H]1CN(C(=O)Nc2ccc(NC(=O)N3CC[C@H]4CC[C@@H](C(=O)N[C@H]5C[C@@H]5c5ccc(C(F)(F)F)c(F)c5)N4C(=O)[C@@H](NC(=O)[C@H](C)NC)C3)cc2)CC[C@H]2CC[C@@H](C(=O)N[C@H]3C[C@@H]3c3ccc(C(F)(F)F)c(F)c3)N2C1=O
[1]
  IC50: < 3 µM
[2]
  IC50: < 3000 nM
[3]
  IC50: < 3000 nM

## CN[C@@H](C)C(=O)N[C@H]1CN(C(=O)Nc2ccc(Cc3ccc(NC(=O)N4CC[C@H]5CC[C@@H](C(=O)N[C@H]6C[C@@H]6c6ccccc6)N5C(=O)[C@@H](NC(=O)[C@H](C)NC)C4)cc3)cc2)CC[C@H]2CCC(C(=O)N[C@H]3C[C@@H]3c3ccccc3)N2C1=O (some centres not stated)
[1]
  IC50: < 3 µM
[2]
  IC50: < 1000 nM
[3]
  IC50: < 3000 nM

## CN[C@@H](C)C(=O)N[C@H]1CN(C(=O)NCCCCCCNC(=O)N2CC[C@H]3CC[C@@H](C(=O)N[C@H]4CCC[C@H]4c4ccccc4)N3C(=O)[C@@H](NC(=O)[C@H](C)NC)C2)CC[C@H]2CCC(C(=O)N[C@H]3CCC[C@H]3c3ccccc3)N2C1=O (some centres not stated)
[1]
  IC50: < 3 µM
[2]
  IC50: < 1000 nM
[3]
  IC50: < 3000 nM

## CN[C@@H](C)C(=O)N[C@H]1CN(C(=O)NCCCCCCNC(=O)N2CC[C@H]3CC[C@@H](C(=O)NC4Cc5ccccc5C4)N3C(=O)[C@@H](NC(=O)[C@H](C)NC)C2)CC[C@H]2CCC(C(=O)NC3Cc4ccccc4C3)N2C1=O (some centres not stated)
[1]
  IC50: < 5 µM
[2]
  IC50: < 1000 nM
[3]
  IC50: < 10000 nM

## CN[C@@H](C)C(=O)N[C@H]1CN(C(=O)NCCCCCCNC(=O)N2CC[C@H]3CC[C@@H](C(=O)NCCc4ccccc4)N3C(=O)[C@@H](NC(=O)[C@H](C)NC)C2)CC[C@H]2CCC(C(=O)NCCc3ccccc3)N2C1=O (some centres not stated)
[1]
  IC50: < 5 µM
[2]
  IC50: < 1000 nM
[3]
  IC50: < 1000 nM

## CN[C@@H](C)C(=O)N[C@H]1CN(C(=O)NCCCCCCNC(=O)N2CC[C@H]3CC[C@@H](C(=O)N[C@H]4CC[C@@H]4c4ccccc4)N3C(=O)[C@@H](NC(=O)[C@H](C)NC)C2)CC[C@H]2CCC(C(=O)N[C@H]3CC[C@@H]3c3ccccc3)N2C1=O (some centres not stated)
[1]
  IC50: < 1 µM
[2]
  IC50: < 1000 nM
[3]
  IC50: < 1000 nM
